Laboratory results from the supplement of paper PMC10307832.

Assays:
Assay in all cases: relative viability (nuclei count vs DMSO), 5 days (fraction); higher = more cells survive
Avagacestat + Pemetrexed = compound: NC(=O)[C@@H](CCC(F)(F)F)N(Cc1ccc(-c2ncon2)cc1F)S(=O)(=O)c1ccc(Cl)cc1 [Avagacestat] + Nc1nc2[nH]cc(CCc3ccc(C(=O)N[C@@H](CCC(=O)O)C(=O)O)cc3)c2c(=O)[nH]1 [Pemetrexed] (partner 0.2 µM)
Method in brief: (§1)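 Relative viability is defined as nuclei in treated wells over nuclei in vehicle wells. Duplicate plates were run and medians reported. Lung cancer cell lines in 1536-well plates were dosed by pin tool one day after seeding, with one drug or with a fixed anchor-drug dose plus five library-drug doses (not always all listed) in √10 steps, and nuclei were counted after 5 days.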

Avagacestat + OSI-027 = compound: NC(=O)[C@@H](CCC(F)(F)F)N(Cc1ccc(-c2ncon2)cc1F)S(=O)(=O)c1ccc(Cl)cc1 [Avagacestat] + COc1cccc2cc(-c3nc([C@H]4CC[C@H](C(=O)O)CC4)n4ncnc(N)c34)[nH]c12 [OSI-027] (partner 0.5 µM)
Method in brief: as §1

Avagacestat + Foretinib = compound: NC(=O)[C@@H](CCC(F)(F)F)N(Cc1ccc(-c2ncon2)cc1F)S(=O)(=O)c1ccc(Cl)cc1 [Avagacestat] + COc1cc2c(Oc3ccc(NC(=O)C4(C(=O)Nc5ccc(F)cc5)CC4)cc3F)ccnc2cc1OCCCN1CCOCC1 [Foretinib] (partner 0.25 µM)
Method in brief: as §1

| Cell Line | relative viability (Avagacestat + Pemetrexed; first compound 0.08 µM) | relative viability (Avagacestat + Pemetrexed; first compound 0.253 µM) | relative viability (Avagacestat + Pemetrexed; first compound 0.8 µM) | relative viability (Avagacestat + Pemetrexed; first compound 2.53 µM) | relative viability (Avagacestat + Pemetrexed; first compound 8 µM) | relative viability (Avagacestat + OSI-027; first compound 0.08 µM) | relative viability (Avagacestat + OSI-027; first compound 0.253 µM) | relative viability (Avagacestat + OSI-027; first compound 0.8 µM) | relative viability (Avagacestat + OSI-027; first compound 2.53 µM) | relative viability (Avagacestat + OSI-027; first compound 8 µM) | relative viability (Avagacestat + Foretinib; first compound 0.08 µM) | relative viability (Avagacestat + Foretinib; first compound 0.253 µM) | relative viability (Avagacestat + Foretinib; first compound 0.8 µM) | relative viability (Avagacestat + Foretinib; first compound 2.53 µM) | relative viability (Avagacestat + Foretinib; first compound 8 µM) |
| --- | --- | --- | --- | --- | --- | --- | --- | --- | --- | --- | --- | --- | --- | --- | --- |
| SK-MES-1 | 1.08 | 1.07 | 1.05 | 0.878 | 0.892 | 0.601 | 0.675 | 0.728 | 0.473 | 0.448 | 0.92 | 0.808 | 1.03 | 0.666 | 0.619 |
| A549 |  |  |  |  |  |  |  |  |  |  | 1.01 | 1.15 | 1.01 | 1.01 | 0.878 |
| SK-LU-1 | 1.19 | 0.972 | 0.951 | 0.97 | 0.741 | 0.379 | 0.307 | 0.297 | 0.29 | 0.248 | 0.993 | 0.879 | 0.852 | 0.575 | 0.66 |
| NCI-H1650 | 0.357 | 0.387 | 0.365 | 0.381 | 0.382 | 0.49 | 0.671 | 0.643 | 0.782 | 0.67 | 1.47 | 1.11 | 1.06 | 1.04 | 1.09 |
| NCI-H2228 | 0.364 | 0.35 | 0.346 | 0.301 | 0.302 | 0.849 | 0.455 | 0.57 | 0.503 | 0.504 | 1.07 | 1.1 | 0.941 | 0.773 | 0.793 |
| NCI-H1299 |  |  |  |  |  |  |  |  |  |  | 1.07 | 1.12 | 1.15 | 1.09 | 1.12 |
| NCI-H2023 | 0.322 | 0.221 | 0.302 | 0.257 | 0.221 | 0.471 | 0.466 | 0.505 | 0.344 | 0.302 | 0.857 | 0.892 | 1 | 0.847 | 0.65 |
